The subject of one assay is Lung cancer cell line NCI-H358 containing KRas G12C mutation. As to the kind of experiment: Assay for cell proliferation (Cell-titer Glo, 5 days). It counts as cell-based, human. The conditions noted are these: Homo sapiens, NCI-H358, 120 h, NCI-H358, 5 days, Cell-titer Glo; read-out: IC50 (nM), Inhibition of NCI-H358 Cell Proliferation. The protocol:
One hundred fifty microliter (150 μL) of media containing 2000 cells per well were seeded into each well of a 96-well culture plate and left to attach overnight in a 37° C. incubator with 5% CO2. Diluted compounds of 0.75 μL for each well were added by liquid handler at a final concentration of 0.5% DMSO. Cells were treated for 5 days in the incubator. Cell-titer Glo (CTG) kit (Promega) was used to assess cell proliferation. Of note, 120 μL of CTG reagent was added to each well and incubated at RT for 10 minutes.
As for `C=CC(=O)N1C[C@H](C)N(c2nc(=O)n(-c3c(C(C)C)ncnc3C(C)C)c3nc(-c4c(N)cccc4F)c(Cl)cc23)C[C@H]1C` [4-((2S,5R)-4-acryloyl-2,5-dimethylpiperazin-1-yl)-7-(2-amino-6-fluorophenyl)-6-chloro-1-(4,6-diisopropylpyrimidin-5-yl)pyrido[2,3-d]pyrimidin-2(1H)-one], the IC50 amounted to 1.6 nM.
In the case of `C=CC(=O)N1C[C@H](C)N(c2nc(=O)n(-c3c(C(C)C)ncnc3C(C)C)c3nc(-c4ccccc4F)c(F)cc23)C[C@H]1C` [4-((2S,5R)-4-acryloyl-2,5-dimethylpiperazin-1-yl)-7-(2-fluorophenyl)-1-(4,6-diisopropylpyrimidin-5-yl)-6-fluoropyrido[2,3-d]pyrimidin-2(1H)-one], the IC50 came out at 19 nM.
Regarding `C=CC(=O)N1C[C@H](C)N(c2nc(=O)n(-c3c(C(C)C)ncnc3C(C)C)c3nc(-c4ccccc4F)c(Cl)cc23)C[C@H]1C` [4-((2S,5R)-4-acryloyl-2,5-dimethylpiperazin-1-yl)-7-(2-fluorophenyl)-6-chloro-1-(4,6-diisopropylpyrimidin-5-yl)pyrido[2,3-d]pyrimidin-2(1H)-one], the IC50 is 4 nM.
As to `C=CC(=O)N1CCN(c2nc(=O)n(-c3c(C(C)C)ncnc3C(C)C)c3nc(-c4ccccc4F)c(Cl)cc23)C[C@@H]1CC#N` [Compound 2], the IC50 is 23.9 nM.
On the same count and under the same terms, the figure for `C=CC(=O)N1CCN(c2nc(=O)n(-c3c(C4CC4)ncnc3C3CC3)c3nc(-c4cccc5[nH]nc(N)c45)c(Cl)cc23)[C@@H](C)C1` [Compound 3] is 661 nM; for `C=CC(=O)N1CCN(c2nc(=O)n(-c3c(C4CC4)ncnc3C3CC3)c3nc(-c4ncccc4F)c(Cl)cc23)[C@@H](C)C1` [Compound 4] it is 130 nM; for `C=CC(=O)N1CCN(c2nc(=O)n(-c3c(C4CC4)ncnc3C3CC3)c3nc(-c4ccccc4F)c(Cl)cc23)C[C@@H]1CC#N` [Compound 5] it is 172 nM.
In the case of `C=CC(=O)N1CCN(c2nc(=O)n(-c3c(C(C)C)nc(N4CCC4)nc3C(C)C)c3nc(-c4ccccc4F)c(Cl)cc23)[C@@H](C)C1` [Compound 7], the IC50 amounted to 30.6 nM.
For `C=CC(=O)N1CCN(c2nc(=O)n(-c3c(C(C)C)nc(NC)nc3C(C)C)c3nc(-c4ccccc4F)c(Cl)cc23)[C@@H](C)C1` [Compound 11], the IC50 came out at 9.2 nM.
Regarding `C=CC(=O)N1CCN(c2nc(=O)n(-c3c(C(C)C)nc(N(C)C)nc3C(C)C)c3nc(-c4ccccc4F)c(Cl)cc23)[C@@H](C)C1` [Compound 12], the IC50 was found to be 107 nM.
As for `C=CC(=O)N1CCN(c2nc(=O)n(-c3c(C(C)C)nc(OCC(C)(C)O)nc3C(C)C)c3nc(-c4ccccc4F)c(Cl)cc23)[C@@H](C)C1` [Compound 16], the IC50 is 8 nM.
Still for that read-out and setting: the result for `C=CC(=O)N1CCN(c2nc(=O)n(-c3c(C(C)C)nc(OC4CCN(C)C4)nc3C(C)C)c3nc(-c4ccccc4F)c(Cl)cc23)[C@@H](C)C1` (stereo partly drawn) [Compound 17] reads 14.4 nM.
With `C=CC(=O)N1CCN(c2nc(=O)n(-c3c(C(C)C)nc(OC4CN(C)C4)nc3C(C)C)c3nc(-c4ccccc4F)c(Cl)cc23)[C@@H](C)C1` [Compound 18], the IC50 was found to be 16 nM.
Still for that read-out and setting: the figure for `C=CC(=O)N1CCN(c2nc(=O)n(-c3c(C(C)C)nc(OCC(C)O)nc3C(C)C)c3nc(-c4ccccc4F)c(Cl)cc23)[C@@H](C)C1` (stereo partly drawn) [Compound 19] is 5 nM.
Turning to `C=CC(=O)N1CCN(c2nc(=O)n(-c3c(C4CC4)nc(C#N)nc3C3CC3)c3nc(-c4c(O)cccc4F)c(F)cc23)[C@@H](C)C1` [Compound 25], the IC50 was found to be 52.5 nM.
As for `C=CC(=O)N1CCN(c2nc(=O)n(-c3c(C4CC4)nc(C#N)nc3C3CC3)c3nc(-c4ccccc4F)c(F)cc23)[C@@H](C)C1` [Compound 26], the IC50 is 168 nM.
`C=CC(=O)N1CCN(c2nc(=O)n(-c3c(C4CC4)nc(C)nc3C3CC3)c3nc(-c4ccccc4F)c(F)cc23)[C@@H](C)C1` [Compound 27]: the IC50 was determined as 69.9 nM.
Regarding `C=CC(=O)N1CCN(c2nc(=O)n(-c3c(C4CC4)nc(N)nc3C3CC3)c3nc(-c4ccccc4F)c(F)cc23)[C@@H](C)C1` [Compound 30], the IC50 is 52.7 nM.
For the molecule `C=CC(=O)N1[C@H](C)CN(c2nc(=O)n(-c3c(C(C)C)nc(OCCN(C)C)nc3C(C)C)c3nc(-c4ccccc4F)c(Cl)cc23)C[C@@H]1C` [Compound 31], the IC50 worked out at 28.2 nM.
For `C=CC(=O)N1CCN(c2nc(=O)n(-c3c(C(C)C)nc(OCCOC)nc3C(C)C)c3nc(-c4ccccc4F)c(Cl)cc23)[C@@H](C)C1` [Compound 32], the IC50 is 8.5 nM.
As for `C=CC(=O)N1CCN(c2nc(=O)n(-c3c(C4CC4)nc(NCCN(C)C)nc3C3CC3)c3nc(-c4ccccc4F)c(F)cc23)[C@@H](C)C1` [Compound 33], the IC50 was found to be 67.5 nM.
Same read-out and setting: the result for `C=CC(=O)N1CCN(c2nc(=O)n(-c3c(C4CC4)nc(N4CC(N(C)C)C4)nc3C3CC3)c3nc(-c4ccccc4F)c(F)cc23)[C@@H](C)C1` [Compound 34] reads 58.3 nM; that for `C=CC(=O)N1CCN(c2nc(=O)n(-c3c(C4CC4)nc(NC(C)=O)nc3C3CC3)c3nc(-c4ccccc4F)c(F)cc23)[C@@H](C)C1` [Compound 35], 58.2 nM.
Regarding `C=CC(=O)N1CCN(c2nc(=O)n(-c3c(C4CC4)ncnc3C3CC3)c3nc(-c4cccc5[nH]nc(N)c45)c(F)cc23)[C@@H](C)C1` [Compound 36], the IC50 was above 3000 nM.
For `C=CC(=O)N1C[C@H](C)N(c2nc(=O)n(-c3c(C4CC4)ncnc3C3CC3)c3nc(-c4cccc5[nH]nc(N)c45)c(F)cc23)C[C@H]1C` [Compound 37], the IC50 is above 3000 nM.
As for `C=CC(=O)N1[C@H](C)CN(c2nc(=O)n(-c3c(C4CC4)ncnc3C3CC3)c3nc(-c4cccc5[nH]nc(N)c45)c(F)cc23)C[C@@H]1C` [Compound 38], the IC50 is above 3000 nM.
In the case of `C=CC(=O)N1CCN(c2nc(=O)n(-c3c(C4CC4)ncnc3C3CC3)c3nc(-c4ccccc4F)c(F)cc23)[C@@H](C)C1` [Compound 39], the IC50 came out at 38.2 nM.
For the molecule `C=CC(=O)N1C[C@H](C)N(c2nc(=O)n(-c3c(C4CC4)ncnc3C3CC3)c3nc(-c4ccccc4F)c(F)cc23)C[C@H]1C` [Compound 42], the IC50 turned out to be 39.5 nM.
With `C=CC(=O)N1C[C@H](C)N(c2nc(=O)n(-c3c(C4CC4)ncnc3C3CC3)c3nc(-c4c(O)cccc4F)c(F)cc23)C[C@H]1C` [Compound 43], the IC50 was determined as 15.5 nM.
Consider `C=CC(=O)N1[C@H](C)CN(c2nc(=O)n(-c3c(C4CC4)ncnc3C3CC3)c3nc(-c4ccccc4F)c(F)cc23)C[C@@H]1C` [Compound 45], for which the IC50 turned out to be 299 nM.
On to `C=CC(=O)N1[C@H](C)CN(c2nc(=O)n(-c3c(C4CC4)ncnc3C3CC3)c3nc(-c4c(O)cccc4F)c(F)cc23)C[C@@H]1C` [Compound 46], for which the IC50 came to 81.5 nM.
Regarding `C=CC(=O)N1[C@H](C)CN(c2nc(=O)n(-c3c(C4CC4)ncnc3C3CC3)c3nc(-c4c(N)cccc4F)c(F)cc23)C[C@@H]1C` [Compound 47], the IC50 is 23.8 nM.
With `C=CC(=O)N1CCN(c2nc(=O)n(-c3c(C(C)C)nc(C)nc3C(C)C)c3nc(-c4ccccc4F)c(F)cc23)[C@@H](C)C1` [Compound 48], the IC50 worked out at 25.8 nM.
With `C=CC(=O)N1C[C@H](C)N(c2nc(=O)n(-c3c(C(C)C)nc(C)nc3C(C)C)c3nc(-c4ccccc4F)c(F)cc23)C[C@H]1C` [Compound 49], the IC50 is 25 nM.

The same assay, now with this note: NCI-H358, 5 days, Cell-titer Glo; read-out: IC50 (nM), Inhibition of NCI-H358 Cell Proliferation.
Consider `C=CC(=O)N1C[C@H](C)N(c2nc(=O)n(-c3c(C4CC4)ncnc3C3CC3)c3nc(-c4ccccc4F)c(F)cc23)C[C@H]1C` [Compound 42], for which the IC50 turned out to be 38.5 nM.

The assay is the same for the next values; noted with them: NCI-H358 IC50 comparison.
In the case of `C=CC(=O)N1C[C@H](C)N(c2nc(=O)n(-c3c(C(C)C)ncnc3C(C)C)c3nc(-c4c(N)cccc4F)c(Cl)cc23)C[C@H]1C` [4-((2S,5R)-4-acryloyl-2,5-dimethylpiperazin-1-yl)-7-(2-amino-6-fluorophenyl)-6-chloro-1-(4,6-diisopropylpyrimidin-5-yl)pyrido[2,3-d]pyrimidin-2(1H)-one], the “fold more potent: 2-amino-6-fluoro-phenyl compound vs. corresponding 2-fluoro-phenyl compound at R8” value is given as “only slightly more potent”.

The values above are taken from US12110289B2, “Heterocyclic compounds, preparation methods and uses thereof” (InventisBio Co., Ltd., priority 2020, dated 2024).
